Test results reported in ChEMBL document CHEMBL1137771, “Non-nucleoside inhibitors of HCV polymerase NS5B. Part 2: Synthesis and structure-activity relationships of benzothiazine-substituted quinolinediones” (Bioorg Med Chem Lett, 2009).

Columns and labels:
Hepatitis C virus [1] = test: Inhibition of HCV genotype 1b isolate con1 NS5B polymerase assessed as incorporation of radiolabeled nucleotide into RNA product; design: species or system Hepacivirus hominis
[2] = Cytotoxicity against human 2209-23 cells by WST1 assay; format: cell-based
Hepatitis C virus [3] = test: Antiviral activity against HCV genotype 1b isolate con1 infected in human 2209-23 cells assessed as inhibition of [3H]thymidine incorporation into DNA by scintillation proximity assay in presence of 5% fetal bovine serum; format: functional, organism-based, Hepacivirus hominis; details: isolate Con1, 2209-23
Hepatitis C virus [4] = test: Antiviral activity against HCV genotype 1b isolate con1 infected in human 2209-23 cells assessed as inhibition of [3H]thymidine incorporation into DNA by scintillation proximity assay in presence of 40% human serum albumin; format: functional, organism-based, Hepacivirus hominis; details: isolate Con1, 2209-23
Hepatitis C virus [5] = test: Ratio of EC50 for HCV genotype 1b isolate con1 in presence of human serum albumin to EC50 for HCV genotype 1b isolate con1 in presence of fetal bovine serum; format: functional, Hepacivirus hominis

SMILES: CS(=O)(=O)Nc1ccc2c(c1)S(=O)(=O)C=C(c1c(O)c3ccccc3n(Cc3ccc(F)cc3)c1=O)N2
- IC50 (Hepatitis C virus [1]): 2 nM
- CC50 [2]: > 50000 nM
- EC50 (Hepatitis C virus [3]): 42 nM
- EC50 (Hepatitis C virus [4]): 542 nM
- fold change (FC) (Hepatitis C virus [5]): 13

SMILES: CS(=O)(=O)Nc1ccc2c(c1)S(=O)(=O)C=C(c1c(O)c3c(Cl)cccc3n(Cc3ccc(F)cc3)c1=O)N2
- IC50 (Hepatitis C virus [1]): 12 nM
- CC50 [2]: > 50000 nM
- EC50 (Hepatitis C virus [3]): 48 nM
- EC50 (Hepatitis C virus [4]): 593 nM
- fold change (FC) (Hepatitis C virus [5]): 12.3

SMILES: CS(=O)(=O)Nc1ccc2c(c1)S(=O)(=O)C=C(c1c(O)c3cccc(F)c3n(Cc3ccc(F)cc3)c1=O)N2
- IC50 (Hepatitis C virus [1]): 8 nM
- CC50 [2]: > 50000 nM
- EC50 (Hepatitis C virus [3]): 103 nM
- EC50 (Hepatitis C virus [4]): 2780 nM
- fold change (FC) (Hepatitis C virus [5]): 26.9

SMILES: CS(=O)(=O)Nc1ccc2c(c1)S(=O)(=O)C=C(c1c(O)c3cc(F)ccc3n(Cc3ccccc3)c1=O)N2
- IC50 (Hepatitis C virus [1]): 7 nM
- CC50 [2]: > 50000 nM
- EC50 (Hepatitis C virus [3]): 44 nM
- EC50 (Hepatitis C virus [4]): 406 nM
- fold change (FC) (Hepatitis C virus [5]): 9.2

SMILES: CS(=O)(=O)NCc1ccc2c(c1)S(=O)(=O)C=C(c1c(O)c3cc(F)ccc3n(Cc3ccc(F)cc3)c1=O)N2
- IC50 (Hepatitis C virus [1]): 68 nM
- CC50 [2]: > 50000 nM
- EC50 (Hepatitis C virus [3]): 6930 nM

SMILES: COc1ccc2c(c1)c(O)c(C1=CS(=O)(=O)c3cc(NS(C)(=O)=O)ccc3N1)c(=O)n2Cc1ccc(F)cc1
- IC50 (Hepatitis C virus [1]): 5 nM
- CC50 [2]: > 50000 nM
- EC50 (Hepatitis C virus [3]): 143 nM
- EC50 (Hepatitis C virus [4]): 2050 nM
- fold change (FC) (Hepatitis C virus [5]): 14.3

SMILES: CS(=O)(=O)Nc1ccc2c(c1)S(=O)(=O)C=C(c1c(O)c3ccc(F)cc3n(Cc3ccc(F)cc3)c1=O)N2
- IC50 (Hepatitis C virus [1]): 10 nM
- CC50 [2]: > 50000 nM
- EC50 (Hepatitis C virus [3]): 74 nM
- EC50 (Hepatitis C virus [4]): 898 nM
- fold change (FC) (Hepatitis C virus [5]): 12.1

SMILES: CS(=O)(=O)Nc1ccc2c(c1)S(=O)(=O)C=C(c1c(O)c3cc(F)ccc3n(Cc3ccc(F)c(Cl)c3)c1=O)N2
- IC50 (Hepatitis C virus [1]): 16 nM
- CC50 [2]: > 50000 nM
- EC50 (Hepatitis C virus [3]): 18 nM

SMILES: CNC(=O)COc1ccc2c(c1)S(=O)(=O)C=C(c1c(O)c3cc(F)ccc3n(Cc3ccc(F)cc3)c1=O)N2
- IC50 (Hepatitis C virus [1]): 25 nM
- CC50 [2]: > 50000 nM
- EC50 (Hepatitis C virus [3]): 869 nM

SMILES: CS(=O)(=O)Nc1ccc2c(c1)S(=O)(=O)C=C(c1c(O)c3cc(F)ccc3n(Cc3ccc(F)c(F)c3)c1=O)N2
- IC50 (Hepatitis C virus [1]): 14 nM
- CC50 [2]: > 50000 nM
- EC50 (Hepatitis C virus [3]): 15 nM

SMILES: CS(=O)(=O)Nc1ccc2c(c1)S(=O)(=O)C=C(c1c(O)c3cc(F)ccc3n(Cc3ccccn3)c1=O)N2
- IC50 (Hepatitis C virus [1]): 103 nM
- CC50 [2]: > 50000 nM
- EC50 (Hepatitis C virus [3]): 1200 nM

SMILES: O=c1c(C2=CS(=O)(=O)c3cc(O)ccc3N2)c(O)c2cc(F)ccc2n1Cc1ccc(F)cc1
- IC50 (Hepatitis C virus [1]): 69 nM
- CC50 [2]: > 50000 nM
- EC50 (Hepatitis C virus [3]): 1740 nM

SMILES: CS(=O)(=O)Nc1ccc2c(c1)S(=O)(=O)C=C(c1c(O)c3cc(F)ccc3n(CC3CCCCC3)c1=O)N2
- IC50 (Hepatitis C virus [1]): 18 nM
- CC50 [2]: > 50000 nM
- EC50 (Hepatitis C virus [3]): 100 nM

SMILES: COc1cc(Cn2c(=O)c(C3=CS(=O)(=O)c4cc(NS(C)(=O)=O)ccc4N3)c(O)c3cc(F)ccc32)ccc1F
- IC50 (Hepatitis C virus [1]): 10 nM
- CC50 [2]: > 50000 nM
- EC50 (Hepatitis C virus [3]): 100 nM
- EC50 (Hepatitis C virus [4]): 528 nM
- fold change (FC) (Hepatitis C virus [5]): 9.2

SMILES: Cc1ccc2c(c1)c(O)c(C1=CS(=O)(=O)c3cc(NS(C)(=O)=O)ccc3N1)c(=O)n2Cc1ccc(F)cc1
- IC50 (Hepatitis C virus [1]): 17 nM
- CC50 [2]: > 50000 nM
- EC50 (Hepatitis C virus [3]): 25 nM

SMILES: CS(=O)(=O)Nc1ccc2c(c1)S(=O)(=O)C=C(c1c(O)c3ccc(Cl)cc3n(Cc3ccc(F)cc3)c1=O)N2
- IC50 (Hepatitis C virus [1]): 384 nM
- CC50 [2]: > 50000 nM
- EC50 (Hepatitis C virus [3]): 2280 nM

SMILES: CS(=O)(=O)c1ccc2c(c1)S(=O)(=O)C=C(c1c(O)c3cc(F)ccc3n(Cc3ccc(F)cc3)c1=O)N2
- IC50 (Hepatitis C virus [1]): 3700 nM
- CC50 [2]: > 50000 nM
- EC50 (Hepatitis C virus [3]): 11900 nM
